The values that follow come from patent US12421212B2, “Substituted benzenecarboxamides as IL-17A modulators” (DiCE Alpha, Inc., priority 2019, dated 2025).

This test deals with T1, IL-17A/A (Homo sapiens, UniProt Q16552).
T1 construct: purchased Genscript Z03228
T1 sequence (Q16552 24-155): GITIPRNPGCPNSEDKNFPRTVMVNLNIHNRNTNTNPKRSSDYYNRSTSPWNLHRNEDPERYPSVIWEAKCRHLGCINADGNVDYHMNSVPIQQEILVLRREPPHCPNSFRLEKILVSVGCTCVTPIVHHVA
Description: IL-17A/A HEK-Blue Cell Assay. It counts as cell-based. Particulars: HEK-Blue IL-17A reporter cell line, SEAP readout at A630, 20 hours incubation with IL-17A/A, top concentration 10 uM, 1 uM or 0.3 uM; for IC50: read-out: IL-17A/A inhibition (pIC50) (converted). The method, then:
The HEK-Blue IL-17A reporter cell line (Fisher #NC1408637) was used for cell-based IL-17A/A inhibition assays. Cells were grown and prepared for assays according to the manufacturer's instructions. This cell line consists of HEK 293 cells that were designed to expressed IL-17RA, IL-17RC, and the ActI adapter molecule, the combination of which, when stimulated by IL-17A/A activates a NFκB promoter and drives expression of a recombinant Secreted Alkaline Phosphatase (SEAP) geneprotein. Media from the cells is then added to a development reagent (Quanti-Blue Substrate, Fisher #NC9711613), and read at A630.
Compounds were titrated in DMSO, with a top final compound concentration of 10 uM, 1 uM, or 0.3 uM, and added to the cells immediately before adding IL-17A/A (Genscript #Z03228). The cells, compound, and IL-17A/A were then incubated for 20 hours before media was removed for SEAP analysis. The resulting inhibition curve was then analyzed using Graphpad Prism 7.0, and IC50 values were determined using a 4-parameter nonlinear fit. DMSO was added to a universal final concentration of 0.1% to optimize background.

With `CCC(=O)N[C@@H](C(=O)N1CCN(C)CC1)[C@@H](C)c1ccc(NC(=O)[C@@H](NC(=O)c2csc3ccncc23)C2CCCCC2)c(F)c1` [Compound 631], the IC50 was 100 to 10000 nM.
For the molecule `CCC(=O)N[C@@H](C(=O)O)[C@@H](C)c1ccc(NC(=O)[C@@H](NC(=O)c2ccnn2CC)C2CCCCCC2)c(F)c1` [Compound 768], the IC50 was 100 to 10000 nM.
Consider `CCC(=O)N[C@H](Cc1ccc(NC(=O)[C@@H](NC(=O)c2cc(CC(C)C)nn2CC)C2CCCCC2)c(F)c1)C(=O)N1CCN(C)CC1` [Compound 773], for which the “IL-17A/A inhibition (pIC50)” value is “X1b (compounds were evaluated up to 10 uM and inhibited activity at 10 uM by less than 20%)”.
On to `CCC(=O)N[C@H](Cc1ccc(NC(=O)[C@@H](NC(=O)c2conc2CC)C2CCC(F)(F)CC2)c(F)c1)C(=O)N1CCN(C)CC1` [Compound 692], for which the IC50 was 100 to 10000 nM.
For `CCn1nnnc1C(=O)N[C@H](C(=O)Nc1ccc([C@H](C)[C@@H](NC(=O)N(C)C2CC2)C(=O)N2CCN(C)[C@H](C)C2)cc1F)[C@H]1CC[C@H](C)CC1` [Compound 604], the IC50 was less than 10 nM.
`C[C@@H](c1ccc(NC(=O)[C@@H](NC(=O)C(F)(F)c2cccc(C#N)c2)C2CCCCC2)c(F)c1)[C@@H](NC(=O)c1cnns1)C(=O)N1CCN(C)CC1` [Compound 311]: the IC50 is less than 10 nM.
Turning to `CCC(=O)N[C@H](Cc1ccc(NC(=O)[C@@H](NC(=O)c2ccnn2C2CC2)C2CCCCC2)c(F)c1)C(=O)N1CCN(C)CC1` [Compound 676], the IC50 is 100 to 10000 nM.
`CCC(=O)N[C@@H](C(=O)N1CCN(C)CC1)[C@@H](C)c1ccc(NC(=O)C(NC(=O)c2ccnn2CC)C2CCc3cc(F)ccc32)c(F)c1` (single isomer, unassigned) [Compound 571]: the “IL-17A/A inhibition (pIC50)” value is “X2a (compounds were evaluated up to 1 uM and did not inhibit activity by >80%, however they showed some activity at 1 uM (less than 80% and more than 20%))”.
For `CCn1nccc1C(=O)N[C@H](C(=O)Nc1ccc([C@H](C)[C@@H](NC(=O)CC2CC2)C(=O)N2CCN(C)CC2)cc1F)C1CCCCCC1` [Compound 340], the IC50 is less than 10 nM.
As for `CC(C)n1nccc1C(=O)N[C@H](C(=O)Nc1ccc([C@H](C)[C@@H](NC(=O)c2cnns2)C(=O)N2CCN(C)CC2)cc1F)C1CCCCC1` [Compound 312], the IC50 is less than 10 nM.
For `CNC(=O)N[C@@H](C(=O)N1CCN(C)CC1)[C@@H](C)c1ccc(NC(=O)[C@@H](NC(=O)C(F)(F)c2cccc(C#N)c2)C2CCCCC2)c(F)c1` [Compound 317], the IC50 is 10 to 100 nM.
In the case of `CCC(=O)N[C@@H](C(=O)N1CCC(F)(F)CC1)[C@@H](C)c1ccc(NC(=O)[C@@H](NC(=O)c2ccnn2CC)[C@H]2CC[C@H](C)CC2)c(F)c1` [Compound 369], the IC50 is 10 to 100 nM.
As for `COc1cncc(C(F)(F)C(=O)N[C@H](C(=O)Nc2ccc([C@H](C)[C@@H](NC(=O)c3cnns3)C(=O)N3CCN(C)CC3)cc2F)[C@H]2CC[C@H](C)CC2)c1` [Compound 400], the IC50 is less than 10 nM.
For the molecule `C[C@@H](c1ccc(NC(=O)[C@@H](NC(=O)C(F)(F)C2CC2)C2CCCCCC2)c(F)c1)[C@@H](NC(=O)c1cnns1)C(=O)N1CCN(C)CC1` [Compound 536], the IC50 was 10 to 100 nM.
Take `CCC(=O)N[C@@H](C(=O)N1CCC(CC(=O)O)CC1)[C@@H](C)c1ccc(NC(=O)[C@@H](NC(=O)c2ccnn2CC)[C@H]2CC[C@H](C)CC2)c(F)c1` [Compound 422]: the IC50 is 10 to 100 nM.
In the case of `CCC(=O)N[C@@H](C(=O)N1CCC(O)CC1)[C@@H](C)c1ccc(NC(=O)[C@@H](NC(=O)c2ccnn2CC)[C@H]2CC[C@H](C)CC2)c(F)c1` [Compound 374], the IC50 is 10 to 100 nM.
Turning to `CCC(=O)N[C@@H](C(=O)N1CCN(C)CC1)[C@@H](C)c1ccc(NC(=O)[C@@H](NC(=O)c2nonc2C(C)C)[C@H]2CC[C@H](C)CC2)c(F)c1` [Compound 549], the IC50 was less than 10 nM.
On to `C[C@@H](c1ccc(NC(=O)[C@@H](NC(=O)c2ccnn2C2CCCC2)[C@H]2CC[C@H](C)CC2)c(F)c1)[C@@H](NC(=O)C1(F)CC1)C(=O)N1CCOCC1` [Compound 380], for which the IC50 is 10 to 100 nM.
For the molecule `CCC(=O)N[C@@H](C(=O)N1CCC(C)(O)CC1)[C@@H](C)c1ccc(NC(=O)[C@@H](NC(=O)c2conc2CC)C2CCCCCC2)c(F)c1` [Compound 357], the IC50 was less than 10 nM.
As to `CCC(=O)N[C@H](Cc1ccc(NC(=O)[C@@H](NC(=O)c2coc3ccccc23)C2CCCCC2)c(F)c1)C(=O)N1CCN(C)CC1` [Compound 632], the IC50 is 100 to 10000 nM.
Take `CCn1nccc1C(=O)N[C@H](C(=O)Nc1ccc(C[C@@H](Nc2nc(N)nc(C(F)(F)F)n2)C(=O)N2CCN(C)CC2)cc1F)C1CCCCC1` [Compound 700]: the “IL-17A/A inhibition (pIC50)” value was “X2a (compounds were evaluated up to 1 uM and did not inhibit activity by >80%, however they showed some activity at 1 uM (less than 80% and more than 20%))”.
`CCC(=O)N[C@@H](C(=O)N1C[C@@H](C)N[C@@H](C)C1)[C@@H](C)c1ccc(NC(=O)[C@@H](NC(=O)c2nonc2CC)[C@H]2CC[C@H](C)CC2)c(F)c1` [Compound 447]: the IC50 is 10 to 100 nM.
Take `C[C@@H](c1ccc(NC(=O)[C@@H](NC(=O)C(F)(F)c2cccc(C#N)c2)C2CCCCCC2)c(F)c1)[C@@H](O)C(=O)N1CCN(C)CC1` [Compound 383]: the IC50 was 10 to 100 nM.
For `CCC(=O)N[C@@H](C(=O)N1CCN(C)CC1)[C@@H](C)c1ccc(NC(=O)[C@@H](NC(=O)c2ccnn2CC)[C@H]2CC[C@H](C)CC2)c(F)c1` [Compound 234], the IC50 was 10 to 100 nM.
On the same count and under the same terms, the figure for `CCC(=O)N[C@@H](C(=O)N1CCN(C)CC1)[C@@H](C)c1ccc(NC(=O)C(NC(=O)c2nonc2CC)C(C)C2CCC(F)(F)CC2)c(F)c1` (stereo partly shown) [Compound 607] is 10 to 100 nM.
Turning to `CCn1nccc1C(=O)N[C@H](C(=O)Nc1ccc([C@H](C)[C@@H](NC(=O)c2ccc(CN(C)C)o2)C(=O)N2CCN(C)CC2)cc1F)C1CCCCC1` [Compound 745], the “IL-17A/A inhibition (pIC50)” value was “X2b (compounds were evaluated up to 1 uM and inhibited activity at 1 uM by less than 20%)”.
Take `CCC(=O)N[C@@H](C(=O)N1CCN(C)CC1)[C@@H](C)c1ccc(NC(=O)[C@@H](NC(=O)c2ccnn2CC)C2CCCCCC2)c(F)c1` [Compound 228]: the IC50 is less than 10 nM.
Still for that read-out and setting: the figure for `CCn1nccc1C(=O)N[C@H](C(=O)Nc1ccc([C@H](C)[C@@H](NC(=O)CC2CC2)C(=O)N2CCN(C)CC2)cc1F)[C@H]1CC[C@H](C)CC1` [Compound 396] is 10 to 100 nM.
Still for that read-out and setting: next, `CCn1nccc1C(=O)N[C@H](C(=O)Nc1ccc([C@H](C)[C@@H](NC(=O)c2cc(C#N)n[nH]2)C(=O)N2CCN(C)CC2)cc1F)C1CCCCC1` [Compound 655]: 100 to 10000 nM; `CCc1nonc1C(=O)N[C@H](C(=O)Nc1ccc([C@H](C)[C@@H](NS(=O)(=O)CC)C(=O)N2CCN(C)CC2)cc1F)[C@H]1CC[C@H](C)CC1` [Compound 518]: 10 to 100 nM.
Take `CCC(=O)N[C@@H](C(=O)N1CCN(C)CC1)[C@@H](C)c1ccc(NC(=O)C(NC(=O)c2nonc2CC)C(CC)c2ccc(F)cc2)c(F)c1` (single isomer, unassigned) [Compound 558]: the IC50 was less than 10 nM.
The same measure, in the same setting: the figure for `CCn1nccc1C(=O)N[C@H](C(=O)Nc1ccc([C@H](C)[C@@H](NC(=O)CC2CC2)C(=O)N2CCN(C)CC2)cc1F)C1CCCCC1` [Compound 307] is 10 to 100 nM.
On to `CCC(=O)N[C@@H](C(=O)N1CCN(Cc2ccccc2)CC1)[C@@H](C)c1ccc(NC(=O)[C@@H](NC(=O)c2ccnn2CC)C2CCCCC2)c(F)c1` [Compound 366], for which the IC50 was less than 10 nM.
Turning to `CCn1nccc1C(=O)N[C@H](C(=O)Nc1ccc([C@H](C)[C@@H](NC(=O)NC2CCC2)C(=O)N2CCN(C)CC2)cc1F)C1CCCCC1` [Compound 628], the IC50 was 100 to 10000 nM.
In the case of `CCn1nccc1C(=O)N[C@H](C(=O)Nc1ccc([C@H](C)[C@@H](NC(=O)c2nonc2C)C(=O)N2CCN(C)CC2)cc1F)[C@H]1CC[C@H](C)CC1` [Compound 473], the IC50 was 10 to 100 nM.
Same read-out and setting: the figure for `CCn1nccc1C(=O)N[C@H](C(=O)Nc1ccc([C@H](C)C(NC(=O)C(F)C2CC2)C(=O)N2CCN(C)[C@H](C)C2)cc1F)[C@H]1CC[C@H](C)CC1` (single isomer, unassigned) [Compound 602] is less than 10 nM; for `CCC(=O)N[C@@H](C(=O)N1CCN(C)C[C@H]1C)[C@@H](C)c1ccc(NC(=O)[C@@H](NC(=O)c2ccnn2CC)[C@H]2CC[C@H](C)CC2)c(F)c1` [Compound 430] it is less than 10 nM; for `CCC(=O)N[C@@H](C(=O)N1CCN(C)CC1)[C@@H](C)c1ccc(NC(=O)C(NC(=O)c2ccnn2CC)[C@H](C)c2ccccc2)c(F)c1` (stereo partly shown) [Compound 288] it is 10 to 100 nM.
For the molecule `CCC(=O)N[C@@H](C(=O)N1CCC(F)(F)CC1)[C@@H](C)c1ccc(NC(=O)[C@@H](NC(=O)c2conc2C(C)(C)N)[C@H]2CC[C@H](C)CC2)c(F)c1` [Compound 534], the IC50 is 10 to 100 nM.
Consider `CCC(=O)N[C@H](Cc1ccc(NC(=O)[C@@H](NC(=O)c2ccnn2CC)C2Cc3ccccc3C2)c(F)c1)C(=O)N1CCN(C)CC1` [Compound 728], for which the “IL-17A/A inhibition (pIC50)” value was “X2a (compounds were evaluated up to 1 uM and did not inhibit activity by >80%, however they showed some activity at 1 uM (less than 80% and more than 20%))”.
